One may read the inhibition as the drop in the measured response relative to a control, in per cent.

The structures appear in SMILES notation. “Also recorded” adds a separate entry of the source. Where two headings read alike, the source gives them in different places. Bounds are passed on as bounds.

Data set [1] is classed as in vitro ADME. To be noted: PAMPA, pH 7.4, 16 h. As to the method:
Parallel artificial membrane permeability assay (PAMPA). Effective permeability (log Pe) was determined in a 96-well format with PAMPA [34]. For each compound, measurements were performed at pH 7.4 in quadruplicates. Four wells of a deep well-plate were filled with 650 μL of PRISMA HT universal buffer, adjusted to pH 7.4 by adding the requested amount of NaOH (0.5 M). Samples (150 μL) were withdrawn from each well to determine the blank spectra by UV/Vis-spectroscopy (190 to 500 nm, SpectraMax 190, Molecular Devices, Silicon Valley, CA, USA). Then the analyte, dissolved in DMSO (10 mM), was added to the remaining buffer to yield 50 μM solutions. To exclude precipitation, the optical density (OD) was measured at 650 nm, and solutions exceeding OD 0.01 were filtrated. Afterwards, samples (150 μL) were withdrawn to determine the reference spectra. […] The filter membranes at the bottom of the acceptor plate were infused with 5 μL of GIT-0 Lipid Solution and 200 μL of Acceptor Sink Buffer were filled into each acceptor well. The sandwich was assembled, placed in the GutBox^TM, and left undisturbed for 16 h. Then, it was disassembled and samples (150 μL) were transferred from each donor and acceptor well to UV-plates for determination of the UV/Vis spectra.
(In general: In PAMPA a lipid-coated filter parts donor from acceptor wells.)

A short description of data set [2]: LogD7.4 determination (octan-1-ol/phosphate buffer, LC-MS). Format: physicochemical. To be noted: octan-1-ol/phosphate buffer, pH 7.4, octan-1-ol/phosphate buffer pH 7.4, 25 °C; read-out: Log D7.4 (partition coefficient at pH 7.4). The procedure:
LogD7.4 determination. The in-silico prediction tool ALOGPS [4] was used to estimate the octanol-water partition coefficients (log P) of the compounds. […] For each category, two different ratios (volume of octan-1-ol to volume of buffer) were defined as experimental parameters (Table 2).
Equal amounts of phosphate buffer (0.1 M, pH 7.4) and octan-1-ol were mixed and shaken vigorously for 5 min to saturate the phases. The mixture was left until separation of the two phases, and the buffer was retrieved. Stock solutions of the test compounds were diluted with buffer to a concentration of 1 μM. For each compound, three determinations per octan-1-ol:buffer ratio were performed in different wells of a 96-well plate. The respective volumes of buffer-containing analyte (1 μM) were pipetted to the wells and covered by saturated octan-1-ol according to the chosen volume ratio. […] The aqueous phase was transferred to a 96-well plate for analysis by liquid chromatography-mass spectrometry (LCMS, see below).
Results are presented as the mean ± SD of three independent experiments.
LC-MS measurements. […] The system was controlled with the Agilent MassHunter Workstation Data Acquisition software (version B.01.04). The column used was an AtlantisR T3 C18 column (2.1 × 50 mm) with a 3 μm-particle size (Waters Corp., Milford, MA, USA). The mobile phase consisted of eluent A: 10 mM ammonium acetate, pH 5.0 in 95:5, H2O:MeCN; and eluent B: MeCN containing 0.1% formic acid. The flow rate was maintained at 0.6 mL/min. […] MS parameters such as fragmentor voltage, collision energy, and polarity were optimized individually for each drug, and the molecular ion was followed for each compound in the multiple reaction monitoring mode. The concentrations of the analytes were quantified by the Agilent Mass Hunter Quantitative Analysis software (version B.01.04).

In data set [3] the test system is SH-SY5Y neuroblastoma cells. Description: Cytotoxic activity of compounds alone, MTT cell viability assay. To be noted: 50 μM compound alone, 24 h, 37 °C, 0.5% DMSO, SH-SY5Y. The procedure: Neuroprotective assays in human neuroblastoma (SH-SY5Y) cells. SH-SY5Y cells were grown in Dulbecco’s Modified Eagle Medium (DMEM, Gibco, Life Technologies) supplemented with 10% fetal bovine serum (FBS, Biochrom GmbH) and 1% Penicillin-Streptomycin (Gibco, Life Technologies) in a humidified incubator at 37 °C, 5% CO2. For the neuroprotective activity assay, undifferentiated SGSY-5Y cells were plated onto 96-well flat-bottomed microtiter plates at a density of 1 × 10^4 cells/well in DMEM supplemented with 2% FBS and preincubated for 24 h at 37 °C, 5% CO2. Compounds (stored as 10 mM solutions in DMSO at −20 °C) were then added to achieve a final concentration of 50 μM and, after 30 min, cells were incubated in the presence or absence of 20 μM Aβ protein fragment 1-42 (Sigma-Aldrich, dissolved in DMSO and stored in 2 mM aliquots at −20 °C) or 100 μM of H2O2 (Sigma-Aldrich, dissolved to 10 mM in 0.9% NaCl aqueous solution immediately prior to the assay) overnight at 37 °C, 5% CO2. […] The following morning, 20 μL of a 5 mg/mL solution of 3-(4,5-dimethylthiazol-2-yl)-2,5-diphenyltetrazolium bromide (MTT, Sigma-Aldrich) in PBS (Gibco, Life Technologies) was added to each well and the plates were further incubated for 4 h at 37 °C, followed by the addition of DMSO (200 μL) to each well in order to dissolve the resulting formazan crystals. After 2 h incubating at 37 °C, the optical density (OD) at 540 nm (with a 620 nm reference filter) was measured in an Amersham Biosciences Biotrak II Plate Reader. The percentage of MTT reduction was determined according to Equation (1). […] Differences between experimental conditions were compared for statistical significance by one-way ANOVA followed by a Tukey’s post-test, an analysis carried out using GraphPad Prism Software (LA Jolla, CA, USA). Differences were considered significant when P < 0.05. In order to exclude direct MTT reduction, compounds were also tested in (a) the absence of cells and (b) in the absence of both cells and culture medium, using the same experimental conditions described above. (2) MTT Reduction (% of Control)=[ODsample−ODmedium/ODcell control−ODmedium] × 100 […]
Tabl e S2. Cytotoxic activity of each compound assessed in SH-SY5Y neuroblastoma cells via an MTT cell viability assay.a Comp ound Nr. MTT reduction (% control) p-va l u e vs . untreated cell control (unpai red t-t es t) […]
a Cells were incubated for 24 h at 37 °C, in the presence (50 μM) or absence of each compound.

In data set [4] the test system is SH-SY5Y human neuroblastoma cells. Description: Neuroprotection against H2O2-induced toxicity, MTT cell viability assay. Format: cell-based. To be noted: 50 μM compound, 100 μM H2O2, 24 h, 37 °C. The text has this: Neuroprotective activity assays against H2O2-induced toxicity. On the basis of previously described protocols, the flavones and analogues herein synthesized were screened for their neuroprotective effects against H2O2-induced oxidative stress and neuronal damage in SH-SY5Y human neuroblastoma cells by means of a thiazolyl blue tetrazolium bromide (MTT) reduction-based cell viability assay.
(§1) Neuroprotective assays in human neuroblastoma (SH-SY5Y) cells. […] Differences were considered significant when P < 0.05.
On the technique in general: Formazan colour is commonly taken as a measure of viable cells.

For data set [5], the target named is acetylcholinesterase (AChE) (Electrophorus electricus, UniProt O42275). Description: Acetylcholinesterase inhibition, Ellman's colorimetric assay. In kind it is biochemical. To be noted: 100 µM compound. The procedure: For cholinesterase inhibition tests (acetylcholinesterase (AChE, electrophorus
was kept within 1.25% cuvette concentration.
AChE and at 18.2 µM concentration for BuChE. […]
A general note: In Ellman's method for cholinesterases, released thiocholine reacts with DTNB.

Data set [6] deals with T1, butyrylcholinesterase (BuChE) (Equus caballus, UniProt P81908).
T1 construct: (BuChE, equine serum); from tissue; host or cells: equine serum
Description: biochemical. To be noted: for inhibition at 100 µM: read-out: BuChE inhibitory efficacy (percentage of inhibition). As to the method:
Experimental procedures for cholinesterase inhibition a s sa y s. For cholinesterase inhibition tests (acetylcholinesterase (AChE, electrophorus
el ec t r ic u s) a n d b ut yr ylcholinesterase (BuChE, equine serum), the Ellman’s cholorimetric assay1 was followed, with minor modifications. DMSO
was kept within 1.25% cuvette concentration. The chromogenic agent DTNB [5,5’-dithiobis(2-nitrobenzoic acid)] was fixed at 0.975 mM
con centration; 0. 1 M phosphate buffer (pH 8. 0) was employed, T = 25 °C, and the reaction was monitored for 125 s. […]
of inhibition, the substrate concentration (acetylthiocholine iodide for AChE; S- butyr ylthiocholine iodide for BuChE) was fixed at 29 µM for
AChE and at 18.2 µM concentration for BuChE.
Lineweaver-Burk plot (or double reciprocal plot, 1/V vs . 1/ [S ]) wa s u se d for estimating both, the mode of inhibition and the inhibition constants […]
Competitive inhibition (inhibitor only bonds the free enzyme):
KKiiii = [II ]KKMM iiaaaa
M i xe d inhibition (inhibitor binds both, the free and the complexed enzyme) :
Uncompetitive (the inhibitors only binds the complexed enzyme):
N on -competitive (inhibitor binds both the free enzyme and the complexed enzyme with equal affinity) :
Table S3. […]
of the synthesized flavone analogues at 100 µ M.
C omp ou n d N o. AChE B uChE

Data set [7] deals with SH-SY5Y human neuroblastoma cells. Description: Neuroprotection against Aβ1-42-induced toxicity, MTT cell viability assay. In kind it is cell-based. To be noted: 50 μM compound, 20 μM Aβ1-42, 24 h, 37 °C. The procedure:
Neuroprotective activity assays against Aβ1-42-induced toxicity. From all compounds tested in the above presented assay, the pair 8 and 19 presented the strongest neuroprotective potential, with convincing proof on the importance of the aglycone for the desired neuroprotective effects against H2O2-induced cell injury. […] Here, the MTT assay was used once again to assess cell viability of SH-SY5Y cells treated with 20 μM of Aβ1-42, in the presence of 50 μM of each compound. Similar protocols have been used to screen candidates for AD therapy. Moreover, based on the existing evidence that in situ spontaneous fibrillization of Aβ1-42 in the incubation mixture is important in the triggering of neurotoxic effects, we added the Aβ1-42 peptide fragment dissolved in DMSO to the culture medium prior to incubation, together with each compound in study. […] Even though there is published evidence that undifferentiated SH-SY5Y cells are not as sensitive to Aβ1-42-induced neurite degeneration and apoptosis as differentiated ones, with 20 μM of Aβ1-42 we were able to observe a significant decrease in cellular MTT reduction capacity, corresponding to roughly half of the cell viability rates observed in the non-treated control.
as §1

T1 sequence (P81908 whole entry): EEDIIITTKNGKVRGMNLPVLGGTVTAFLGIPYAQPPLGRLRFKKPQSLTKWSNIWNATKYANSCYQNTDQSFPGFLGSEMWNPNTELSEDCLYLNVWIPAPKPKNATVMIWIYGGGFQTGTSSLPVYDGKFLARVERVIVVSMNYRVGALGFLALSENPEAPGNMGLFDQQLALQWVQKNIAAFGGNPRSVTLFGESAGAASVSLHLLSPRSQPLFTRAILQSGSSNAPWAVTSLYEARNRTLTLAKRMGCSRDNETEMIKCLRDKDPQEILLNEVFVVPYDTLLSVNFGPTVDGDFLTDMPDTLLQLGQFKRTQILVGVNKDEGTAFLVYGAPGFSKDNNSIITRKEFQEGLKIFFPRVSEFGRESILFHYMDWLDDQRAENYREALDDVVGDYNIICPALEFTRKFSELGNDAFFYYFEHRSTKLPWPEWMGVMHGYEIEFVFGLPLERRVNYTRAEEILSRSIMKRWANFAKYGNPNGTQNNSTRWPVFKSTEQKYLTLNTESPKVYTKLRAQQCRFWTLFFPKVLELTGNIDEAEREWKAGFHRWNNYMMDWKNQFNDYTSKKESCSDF
Sequence of acetylcholinesterase (AChE) (O42275 24-633): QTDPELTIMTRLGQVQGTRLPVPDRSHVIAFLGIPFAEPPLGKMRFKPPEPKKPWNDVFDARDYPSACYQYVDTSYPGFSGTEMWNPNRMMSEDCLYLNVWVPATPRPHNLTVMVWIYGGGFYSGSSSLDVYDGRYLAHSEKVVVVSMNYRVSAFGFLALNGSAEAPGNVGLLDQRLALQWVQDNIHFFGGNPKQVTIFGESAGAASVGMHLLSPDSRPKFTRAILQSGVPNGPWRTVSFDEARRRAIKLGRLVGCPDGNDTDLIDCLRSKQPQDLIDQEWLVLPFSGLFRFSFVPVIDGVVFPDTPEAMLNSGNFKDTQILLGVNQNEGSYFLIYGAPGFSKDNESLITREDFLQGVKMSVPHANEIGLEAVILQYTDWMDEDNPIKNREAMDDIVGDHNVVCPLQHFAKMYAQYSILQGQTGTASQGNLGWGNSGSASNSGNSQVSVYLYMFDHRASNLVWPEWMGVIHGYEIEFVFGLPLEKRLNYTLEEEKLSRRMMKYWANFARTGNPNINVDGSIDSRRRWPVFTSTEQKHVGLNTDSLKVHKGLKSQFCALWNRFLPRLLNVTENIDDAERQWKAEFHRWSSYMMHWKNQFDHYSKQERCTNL

`O=c1cc(-c2ccc(F)cc2)oc2c([C@@H]3O[C@H](CO)[C@@H](O)[C@H](O)[C@H]3O)c(O)cc(O)c12` [Compound 18, 4′-Fluoro-8-(β-D-glucopyranosyl)-5,7-dihydroxyflavone]: in data set [1], the “Log Pe (effective permeability)” value is listed as “no detectable permeability; also recorded: Below detection limit”. The logD in data set [2] is -0.2 ± 0.1. The “MTT reduction (% control)” value in data set [3] came to 136.7 ±12.9%.

Consider `CCC(C)c1cc(=O)c2c(O)cc(O)cc2o1` (stereo not drawn) [Compound 6, 5,7-Dihydroxy-2-(1-methylpropyl)-4H-chromen-4-one], for which the logD in data set [2] is more than 2.5. Moreover, the “Neuroprotective effect against H2O2-induced toxicity (MTT cell viability)” value in data set [4] is given as “the increase was not significant”. Besides, the “MTT reduction (% control)” value in data set [3] is 109.9 ± 18.7%. Further, the “AChE inhibitory efficacy (percentage of inhibition)” value in data set [5] was “n.i ”. For the same compound, the “Butyrylcholinesterase inhibition, ranking in words” value in data set [6] (100 µM compound) is “the most promising one”. In data set [6] (BuChE, Lineweaver-Burk plot), the Mode of inhibition entry is given as “Mixed inhibition”. The Ki in data set [6] (BuChE, Lineweaver-Burk plot, read-out: Kia (inhibition constant)) amounted to 44 ± 17 µM; in data set [6] (BuChE, Lineweaver-Burk plot, read-out: Kib (inhibition constant)), 36 ± 8 µM. For the same compound, in data set [6], the inhibition at 100 µM amounted to 46%.

On to `O=c1cc(-c2ccc(F)cc2)oc2cc(O)cc(O)c12` [Compound 7, 4′-Fluoro-5,7-dihydroxyflavone], for which the logD in data set [2] is more than 2.5. In addition, the “Neuroprotective effect against Aβ1-42-induced toxicity (MTT cell viability)” value in data set [7] is “contrarily”. In addition, the “MTT reduction (% control)” value in data set [3] is listed as 109.4 ± 11.4%. Moreover, the “AChE inhibitory efficacy (percentage of inhibition)” value in data set [5] is given as “n.i ”. The inhibition at 100 µM in data set [6] amounted to 23%.

Regarding `O=c1cc(-c2ccc(N3CCOCC3)cc2)oc2cc(O)cc(O)c12` [Compound 8, 5,7-Dihydroxy-4′-(morpholin-4-yl)flavone], in data set [2], the logD was more than 2.5. The “Neuroprotective effect against H2O2-induced toxicity (MTT cell viability)” value in data set [4] is on record as “able to produce statistically significant differences when compared to H2O2 controls”. Also, the “Neuroprotective effect against Aβ1-42-induced toxicity (MTT cell viability)” value in data set [7] was “displayed relevant neuroprotective effects against Aβ1-42”. Moreover, the “MTT reduction (% control)” value in data set [3] turned out to be 57.6 ± 25.5%.

Source of the values: paper PMC6630837 (Pharmaceuticals, 2019).
